Test results: the supplement of paper PMC11562712

Assay: first-order primary biodegradation rate constant k (sorption-corrected, fDis-corrected) (d-1); higher = faster biodegradation
Experimental: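 Modified OECD 309 water-sediment test. River water plus sieved sediment (50 g wet solid/L) from European river segments (DE, CH, ES, EL) was spiked with a mixture of 129 compounds at 1 ug/L each and incubated in the dark at river temperature for 10 days. The water phase was analysed by UHPLC-Orbitrap-MS. The first-order primary biodegradation rate constant k (d-1) is k_observed, corrected for dissipation in sterile sorption controls and divided by the dissolved fraction fDis; it was fitted over 3 replicate incubations. Invalid fits (p > 0.05, n < 5, not available, concentration increase) are excluded.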

[1] = river segment: Germany (DE) H_Contam, incubation temperature 24 °C
[2] = river segment: Germany (DE) T_Pris, incubation temperature 24 °C
[3] = river segment: Greece (EL) A_Contam, incubation temperature 19 °C
[4] = river segment: Greece (EL) G_Contam, incubation temperature 19 °C
[5] = river segment: Greece (EL) G_Pris, incubation temperature 19 °C
[6] = river segment: Greece (EL) L_Contam, incubation temperature 19 °C
[7] = river segment: Spain (ES) B_Contam, incubation temperature 24 °C
[8] = river segment: Spain (ES) C_Contam, incubation temperature 24 °C
[9] = river segment: Spain (ES) F_Pris_Salt, incubation temperature 24 °C
[10] = river segment: Spain (ES) L_Contam, incubation temperature 24 °C
[11] = river segment: Switzerland (CH) C_Contam, incubation temperature 17 °C
[12] = river segment: Switzerland (CH) R_Contam, incubation temperature 17 °C
[13] = river segment: Switzerland (CH) U_Pris, incubation temperature 17 °C
[14] = river segment: Germany (DE) T_Contam, incubation temperature 24 °C
[15] = river segment: Switzerland (CH) U_Contam, incubation temperature 17 °C

| SMILES | first-order primary biodegradation rate constant k [1] | first-order primary biodegradation rate constant k [2] | first-order primary biodegradation rate constant k [3] | first-order primary biodegradation rate constant k [4] | first-order primary biodegradation rate constant k [5] | first-order primary biodegradation rate constant k [6] | first-order primary biodegradation rate constant k [7] | first-order primary biodegradation rate constant k [8] | first-order primary biodegradation rate constant k [9] | first-order primary biodegradation rate constant k [10] | first-order primary biodegradation rate constant k [11] | first-order primary biodegradation rate constant k [12] | first-order primary biodegradation rate constant k [13] | first-order primary biodegradation rate constant k [14] | first-order primary biodegradation rate constant k [15] |
| --- | --- | --- | --- | --- | --- | --- | --- | --- | --- | --- | --- | --- | --- | --- | --- |
| CC(C)c1ccc(NC(=O)N(C)C)cc1 [Isoproturon] | 0.0107 | – | 0.072 | – | 0.111 | 0.0309 | – | 0.0102 | – | 0.0402 | – | – | 0.0209 | 0.0814 | 0.0187 |
| CO[C@@H]1[C@@H](OC(N)=O)[C@@H](O)[C@H](Oc2ccc3c(O)c(NC(=O)c4ccc(O)c(CC=C(C)C)c4)c(=O)oc3c2C)OC1(C)C [Novobiocin] | – | 0.212 | – | 0.108 | – | 7.88 | – | – | 0.145 | – | – | – | – | – | – |
| CCc1cccc(CC)c1N(COC)C(=O)CCl [Alachlor] | 0.0727 | 0.105 | – | – | 0.387 | 0.568 | 0.115 | – | – | 0.12 | 0.0903 | 0.223 | – | 0.612 | 0.349 |
| Cc1ccc(-c2nc3ccc(C)cn3c2CC(=O)N(C)C)cc1 [Zolpidem] | 0.202 | 0.0723 | 0.464 | – | 0.19 | 2.27 | 0.709 | 0.0357 | 0.00549 | 0.761 | 0.0346 | 0.0249 | 0.135 | 0.672 | 0.0604 |
| NC(=O)c1cccnc1 [Nicotinamide] | – | – | 0.821 | – | – | – | – | – | – | – | – | 0.0625 | – | – | – |
| COc1c(Cl)ccc(Cl)c1C(=O)O [Dicamba] | – | – | – | – | – | – | – | – | 0.107 | 0.229 | 0.0368 | – | 0.1 | 0.109 | 0.0133 |
| Cc1cc(Cl)ccc1OC(C)C(=O)O (centres undefined) [Mecoprop] | 0.0948 | 0.0247 | 0.155 | 0.021 | 0.0919 | 0.0787 | 0.0613 | 0.159 | 0.0616 | 0.0286 | 0.0712 | 0.201 | 0.417 | 0.267 | 0.163 |
| CC(C)N(C(=O)COc1nnc(C(F)(F)F)s1)c1ccc(F)cc1 [Flufenacet] | 0.0427 | – | 0.0323 | – | 0.0751 | – | 0.0399 | 0.0442 | – | 0.0865 | – | – | 0.105 | 0.151 | 0.0707 |

Further lines, with some results ahead:

| first-order primary biodegradation rate constant k [1] | first-order primary biodegradation rate constant k [2] | first-order primary biodegradation rate constant k [3] | first-order primary biodegradation rate constant k [4] | first-order primary biodegradation rate constant k [5] | first-order primary biodegradation rate constant k [6] | first-order primary biodegradation rate constant k [7] | first-order primary biodegradation rate constant k [8] | first-order primary biodegradation rate constant k [9] | first-order primary biodegradation rate constant k [10] | first-order primary biodegradation rate constant k [11] | first-order primary biodegradation rate constant k [12] | first-order primary biodegradation rate constant k [13] | first-order primary biodegradation rate constant k [14] | SMILES | first-order primary biodegradation rate constant k [15] |
| --- | --- | --- | --- | --- | --- | --- | --- | --- | --- | --- | --- | --- | --- | --- | --- |
| 0.0753 | 0.259 | 1.21 | 1.63 | 1.17 | 0.81 | 0.646 | 0.00288 | 0.0294 | 1.5 | 0.0717 | 0.119 | 0.0554 | – | Nc1ccc(S(=O)(=O)Nc2nccs2)cc1 [Sulfathiazole] | – |
| 0.127 | 0.044 | 0.283 | 0.119 | 0.286 | 0.166 | – | – | – | 0.0944 | – | – | 0.0899 | 0.147 | CN(C)C(=O)Nc1ccc(Cl)c(Cl)c1 [Diuron] | 0.0756 |
| 0.0829 | 0.0275 | 0.168 | – | 0.0968 | 0.114 | 0.359 | 0.149 | 0.0149 | 0.229 | 0.0405 | 0.336 | 0.0826 | 0.171 | NS(=O)(=O)c1cc(C(=O)O)c(NCc2ccco2)cc1Cl [Furosemide] | 0.155 |
| 0.387 | 0.365 | 1.16 | 0.652 | 2.31 | 1.2 | 0.38 | 0.286 | 0.221 | 0.565 | 0.44 | 0.57 | 1.15 | 1.31 | NC(=O)c1cn(Cc2c(F)cccc2F)nn1 [Rufinamide] | 0.383 |
| 0.132 | 0.076 | 0.193 | 0.107 | 0.0804 | 0.337 | 0.147 | 0.232 | 0.0178 | 0.217 | 0.0406 | 0.0937 | 0.171 | 0.195 | CC(C)NCC(O)c1ccc(NS(C)(=O)=O)cc1 (centres undefined) [Sotalol] | 0.108 |
| 0.0889 | – | 0.0196 | 0.0964 | – | 0.063 | – | – | – | 1.1 | – | – | – | 0.143 | Cc1cc(NS(=O)(=O)c2ccc(N)cc2)no1 [Sulfamethoxazole] | – |
| 0.0136 | – | – | – | – | – | – | – | – | – | – | – | – | 0.0182 | NS(=O)(=O)c1cc(C2(O)NC(=O)c3ccccc32)ccc1Cl (centres undefined) [Chlorthalidone] | – |
| 0.295 | 0.123 | 0.408 | 0.184 | 0.438 | 0.566 | 1.03 | 0.169 | 0.0229 | 0.263 | 0.382 | 0.411 | 2.17 | 0.469 | CC(C)(Oc1ccc(CCNC(=O)c2ccc(Cl)cc2)cc1)C(=O)O [Bezafibrate] | – |
| 0.129 | – | 0.0824 | 0.0668 | 0.237 | 0.123 | 1.13 | – | – | 1.27 | 0.0158 | 0.00496 | 0.0859 | 0.416 | COc1cc(NS(=O)(=O)c2ccc(N)cc2)nc(OC)n1 [Sulfadimethoxine] | – |
